# Earlier results in patent US12107222B2, “Liquid electrolyte comprising organic carbonates and cyclic sulfoxides for applications in lithium secondary batteries” (Forschungszentrum Juelich GmbH, priority 2018, dated 2024).
# Columns and labels:
# rat [1] = details: in vivo
# human organism = details: classification in words
# rat [2] = test system: rat
# rat [3] = test system: rat; remark: listed apart in the source
Compound,"LD50, rabbit, dermal (rabbit)","LD50, rat, oral (rat [1])",hazard classification (human organism),other results
"CCC1COC(=O)O1 (stereo not drawn) [1,2-Butylene carbonate]","LD50, rabbit, dermal: >2,000 mg/kg^[13]","LD50, rat, oral: >5,000 mg/kg",–,–
"O=S1(=O)CCCO1 [1,3-propane sultone]",–,–,carcinogenic and toxic,–
O=C1OCCO1 [Ethylene carbonate],–,–,–,"LC50, rat, inhalative, 7 h (rat [2]): LC50, rat, inhalative, 7 h: >1.268 mg/L^[12]; LD50, rat, dermal (rat [3]): LD50, rat, dermal: >2,000 mg/kg"
CC1COC(=O)O1 (stereo not drawn) [Propylene carbonate],"LD50, rabbit, dermal: >2,000 mg/kg^[2]","LD50, rat, oral: >5,000 mg/kg",–,–
[O-][S+]1CCCC1 [Tetrahydrothiophene-1-oxide],–,–,–,"LD50, mouse, intraperitoneal (mouse): LD50, mouse, intraperitoneal: 3,500"
O=c1occo1 [Vinylene carbonate],–,–,toxic on contact with the skin,–
